Source: patent US9241928B2, “Antimicrobial compounds” (The General Hospital Corporation, priority 2009, dated 2016)
≈ marks a conversion by molar mass, not a printed value.

Legend:
C17H12.8 = assay: qRT-PCR of immune response gene expression; type: in vivo, Caenorhabditis elegans; details: 20 μg/mL versus DMSO
Source text: (§1) Caenorhabditis elegans strains were maintained on Escherichia coli OP50 as described in Brenner, Genetics, 1974, 77:71-94. Wildtype N2 nematodes carrying integrated transgenes acIs219 (AU78), acIs101(AY101), agIs17(AU133), or agIs26 (AU185) (see (1) Shivers, et al., PLoS. Genet. 2010, 6: e1000892, (2) Bolz et al., J. Biol. Chem. 2010, 285:10832-40, (3) Estes et al., Proc. Natl. Acad. Sci., 2010, 107:2153-8, and (4) Irazoqui et al., Proc. Natl. Acad. Sci., 2008, 105:17469-74) were used to assay the immunomodulatory activity of candidate compounds. For qRT-PCR experiments, RNA was extracted from synchronized young adult nematodes exposed to a candidate compound or DMSO (as a control) using TRI Reagent and reverse transcribed using the Retroscript kit (Ambion). This cDNA was then subjected to qRT-PCR analysis using SYBR green detection on a CFX1000 machine (Bio-Rad, http://www.bio-rad.com). Primers for qRT-PCR were obtained from published sequences (see Irazoqui et al., Proc. Natl. Acad. Sci., 2008, 105:17469-74 and Troemel et al., PLoS Genet. 2006, 2:e183). […] Fold change was calculated using the Pfaffl method (see Pfaffl et al., Nucleic Acids Res., 2001, 29:e45).
(§2) By using the assay described above, the inventors identified five compounds (i.e., Compounds 11, 18, 20, 25, and 26) that robustly and reproducibly activated the immune GFP reporters (see FIG. 5 and Table 3) or activated selected immune response genes as determined by quantitative RT-PCR analysis (see Table 4). For the latter experiments, RNA was isolated from wild-type C. elegans N2 or pmk-1 mutant animals exposed to the candidate immunomodulatory compounds at 20 μg/mL and from animals exposed to DMSO. The inventors tested several immune response genes in compound-exposed animals that are known to be regulated by PMK-1, the p38 Mitogen Acitvated Protein kinase homolog, an evolutionary-conserved, central regulator of nematode immunity. The inventors also used qRT-PCR to measure the activation of several immune response genes that are known to be activated independently of PMK-1. […] Thus, without wishing to be bound by theory, it is believed that a subset of the compounds identified in the screen for novel anti-infective compounds directly stimulate the immune response of the nematode and that these compounds act both by directly stimulating the PMK-1 pathway and by unidentified parallel immune response pathways.

C49G7.5 = assay: qRT-PCR of immune response gene expression; type: in vivo, Caenorhabditis elegans; details: 20 μg/mL versus DMSO
Source text: as §1, §2

irg-1 = assay: qRT-PCR of immune response gene expression; type: in vivo, Caenorhabditis elegans; details: 20 μg/mL versus DMSO
Source text: as §1, §2

F53E10.4 = assay: qRT-PCR of immune response gene expression; type: in vivo, Caenorhabditis elegans; details: 20 μg/mL versus DMSO
Source text: as §1, §2

F56D6.2 = assay: qRT-PCR of immune response gene expression; type: in vivo, Caenorhabditis elegans; details: 20 μg/mL versus DMSO
Source text: as §1, §2

T24B8.5 = assay: qRT-PCR of immune response gene expression; type: in vivo, Caenorhabditis elegans; details: 20 μg/mL versus DMSO
Source text: as §1, §2

F35E12.5 = assay: qRT-PCR of immune response gene expression; type: in vivo, Caenorhabditis elegans; details: 20 μg/mL versus DMSO
Source text: as §1, §2

immune response genes = assay: qRT-PCR of immune response genes, PMK-1 dependence (overall); type: in vivo, Caenorhabditis elegans; details: 20 μg/mL, N2 or pmk-1 mutant animals
Source text: as §1
By using the assay described above, the inventors identified five compounds (i.e., Compounds 11, 18, 20, 25, and 26) that robustly and reproducibly activated the immune GFP reporters (see FIG. 5 and Table 3) or activated selected immune response genes as determined by quantitative RT-PCR analysis (see Table 4). For the latter experiments, RNA was isolated from wild-type C. elegans N2 or pmk-1 mutant animals exposed to the candidate immunomodulatory compounds at 20 μg/mL and from animals exposed to DMSO. The inventors tested several immune response genes in compound-exposed animals that are known to be regulated by PMK-1, the p38 Mitogen Acitvated Protein kinase homolog, an evolutionary-conserved, central regulator of nematode immunity. The inventors also used qRT-PCR to measure the activation of several immune response genes that are known to be activated independently of PMK-1. […]

T24B8.5::GFP = assay: Immune GFP reporter induction, transgene acIs219; type: in vivo, Caenorhabditis elegans; details: compound-exposed versus DMSO-exposed animals, visual
Source text: as §1
Without wishing to be bound by theory, it was hypothesized that a subset of these compounds cured nematode infection by directly activating the innate immune response of the animal. To test this hypothesis, a multi-faceted approach was used. First, the inventors studied four C. elegans strains in which the promoter of the nematode immune response genes T24B8.5, F35E12.5, irg-1 and clec-60 were individually fused to GFP, generating transgenes acIs219 (AU78), acIs101(AY101), agIs17(AU133), or agIs26 (AU185), respectively, thereby allowing a visual readout of gene activity in each strain. Using these reporter strains, the ability of 33 compounds previously shown to have anti-Enterococcal killing activity in the C. elegans infection assay (24 of which have been described above) were tested for their ability to modulate the nematode immune response.

E. faecalis MMH594 = assay: MIC assay, E. faecalis in vitro; type: cell-based; details: Enterococcus faecalis; E. faecalis MMH594 in 20% BHI, 80% M9, 37° C., 15 hours, scored by eye
Method: A culture of E. faecalis MMH594 was grown overnight in BHI broth to stationary phase at 37° C. with aeration. The culture was diluted to an approximate density of […] in worm infection media (20% BHI, 80% M9 buffer). 12.5 μl of the bacterial culture dilution was inoculated into 384-well plates containing 12.5 μl of 2-fold serial dilutions of a test compound. […] Plates were incubated at 37° C. for 15 hours and scored by eye for bacterial growth.

[1] = tested on: a different Enterococcus faecalis strain; assay: Bacterial killing, different Enterococcus faecalis strain (data not shown); type: cell-based
Drosophila infection = assay: Drosophila infection-survival bioassay (data not shown); type: in vivo
E. faecalis strain V583 [2] = assay: Biofilm maintenance assay (crystal violet); type: cell-based, Enterococcus faecalis; details: 10 μg/ml added to biofilm established for 24 hours
Method: To test for the efficacy of candidate compounds on biofilm maintenance, a bacterial culture of OD600=0.025 was grown in 96-well polystyrene plates for 24 hours as described above to establish biofilm mass prior to the addition of candidate compounds dissolved in DMSO at a final concentration of 10 μg/ml. The plates were then processed as described above.

[3] = tested on: E. faecalis strain MMH594; assay: Antimicrobial (bacterial killing) assay; type: cell-based, Enterococcus faecalis; details: mM concentrations, 1 to 30 minutes, room temperature
Method: Compounds 6, 7, 15 were purchased from TimTec and ChemDiv, dissolved in DMSO at a concentration of 5 or 10 mg/ml, and further diluted in DMSO as indicated. E. faecalis strain MMH594 was grown overnight with aeration at 37° C. in Bacto brain heart infusion (BHI) broth (Becton Dickinson), transferred to ice, and washed in phosphate-buffered saline (PBS; pH 7.2). Equal volumes of a dissolved compound and bacteria were mixed, incubated at room temperature for 1 to 30 minutes, ten-fold serially diluted in PBS, and plated in […] droplets on BHI agar plates. Plates were incubated at room temperature until colonies were visible.

[4] = tested on: a Staphylococcus aureus strain; assay: Bacterial killing, Staphylococcus aureus strain (data not shown); type: cell-based
E. faecalis strain V583 [5] = assay: Biofilm formation assay (crystal violet); type: cell-based, Enterococcus faecalis; details: 10 μg/ml, 24 hours
Method: To test the efficacy of candidate compounds on biofilm formation, a dilute bacterial culture of Enterococcus faecalis was incubated with candidate compounds in polystyrene plates and the level of biofilm formation was quantified by measuring the amount of crystal violet absorbed by the biofilm mass attached to plastic. First, E. faecalis strain V583 was grown at 37° C. for 16 hours in Tryptic Soy Broth (TSB) with 1% glucose. The bacterial culture was diluted to OD600=0.025 in fresh medium and was dispensed into 96-well polystyrene plates. Candidate compounds dissolved in dimethylsulfoxide (DMSO) were added to the wells to provide a final concentration of 10 μg/ml and the plates were incubated statically at 37° C. for 24 hours. After incubation, the medium was aspirated, the planktonic cells were removed by washing with phosphate buffered saline (PBS), and the plates were inverted and dried for 1 hour at room temperature. The biofilm mass was stained with 0.2% crystal violet for 15 minutes and extraneous crystal violet was washed away with PBS. The crystal violet absorbed by the biofilm was extracted with an 80% ethanol, 20% acetone mixture and the absorbance at 595 nm (OD595) was read with a spectrophotometer.

[6] = tested on: C. elegans infected with E. faecalis; assay: Dose response time courses in the C. elegans-E. faecalis infection assay; type: in vivo, Caenorhabditis elegans; details: Effective Concentration: survival significantly different from mock-treated, p-value <0.05, logrank; read-out: EC
Method: glp-4(bn2); sek-1 (km4) mutant worms were grown to gravid adult stage. 1,000 worms at the L1 stage were grown for 5.2 days at 15° C. on 9-cm plates of SK agar media spread with a lawn of E. coli strain HB101. Embryos from the gravid adults were isolated by a previously described hypochlorite method (see Tan et al., (1999) Proc. Natl. Acad. Sci. USA 96, 715-720) and hatched at 15° C. for 2 days. Approximately 4,500 of the Ll hatchlings were grown on each 9-cm plate of SK-NS agar (SK media with 62.5 U/ml nystatin and 100 μg/ml streptomycin) and with lawns of E. coli HB101. These worms were grown at 25° C. for 52 hours to generate sterile, young adults.
A culture of E. faecalis MMH594 was grown in BHI broth (BD Difco) with 80 μg/ml kanamycin at 37° C. for 6 hours and 100 μl of the culture were spread onto each 9-cm plate of BHI agar containing 80 μg/mlkanamycin. Lawns of E. faecalis were grown at 25° C. for 16 hours and transferred to 15° C. for 8 hours.
Sterile adult worms were resuspended in M9 buffer and washed twice with M9 in a 1:10 ratio to remove E. coli. 8,000 worms were pipetted onto each lawn of E. faecalis and incubated 15 hours at 15° C. After infection, the worms were resuspended in M9 and used as described below. 384-well plates (Corning #3712) were filled with 55 μl media (see below) using a Thermo Scientific MULTIDROP Combi reagent dispenser. 0.3 μl of a candidate compound in DSMO were pin transferred into each well using a CyBio CYBI-Well vario transfer system. The plates were agitated using an Eppendorf MIXMATE at 1,800 rpm for 15 seconds. Using the Union Biometrica Complex Object Parametric Analyzer and Sorter (COPAS) BIOSORT worm sorter according to manufacturer's protocols, 15 of the infected worms were transferred to each well in a total volume of approximately 15 μl. Total volume per well is 70 μl/well with a final composition of the media being 20% BHI, […], 80 μg/ml kanamycin, 62.5 U/ml nystatin, 1% DMSO, and 19% sheath solution (Union Biometrica Part #300-5101-000). Plates were vortexed for 5 seconds, centrifuged at 1000×g for 10 seconds, and sealed with gas permeable membranes (BREATHEASY Diversified). Plates were placed in a single layer on the top shelves in a 26.3° C. incubator at 85% relative humidity (RH) and incubated without agitation for 5 days.
The dose dependence of certain antimicrobial compounds identified by the assay above were studied. These compounds were purchased in a larger amount from commercial sources. For each of these compounds, an infection assay was performed essentially as described above at different concentrations except that SYTOX staining was not used. Instead, bright-field images of the wells were acquired at daily time points and scored manually for worm survival by analyzing worm body positioning. […] All compounds used in this assays were confirmed for their identity and purity by liquid chromatography/mass spectrometry.

SMILES: CC(C)(c1ccc(NS(=O)(=O)C(F)(F)F)cc1)c1ccc(C(C)(C)c2cccc(NS(=O)(=O)C(F)(F)F)c2)cc1 [Compound 18]
- C17H12.8 expression, average fold-change (C17H12.8; genotype N2): 10.2 fold-change
- C17H12.8 expression, average fold-change (C17H12.8; genotype pmk-1(km25)): 0.3 fold-change
- C49G7.5 expression, average fold-change (C49G7.5; genotype N2): 11.1 fold-change
- C49G7.5 expression, average fold-change (C49G7.5; genotype pmk-1(km25)): 57.4 fold-change
- irg-1 expression, average fold-change (irg-1; genotype N2): 1.5 fold-change
- irg-1 expression, average fold-change (irg-1; genotype pmk-1(km25)): 4.4 fold-change
- F53E10.4 expression, average fold-change (F53E10.4; genotype N2): 0.2 fold-change
- F53E10.4 expression, average fold-change (F53E10.4; genotype pmk-1(km25)): 0.3 fold-change
- F56D6.2 expression, average fold-change (F56D6.2; genotype N2): 2.2 fold-change
- F56D6.2 expression, average fold-change (F56D6.2; genotype pmk-1(km25)): 1.0 fold-change
- T24B8.5 expression, average fold-change (T24B8.5; genotype N2): 2.6 fold-change
- T24B8.5 expression, average fold-change (T24B8.5; genotype pmk-1(km25)): 0.3 fold-change
- F35E12.5 expression, average fold-change (F35E12.5; genotype N2): 10.6 fold-change
- F35E12.5 expression, average fold-change (F35E12.5; genotype pmk-1(km25)): 0.4 fold-change
- PMK-1 dependence of immune response gene activation (immune response genes): activated at least one immune response gene in the nematode in a manner independent of PMK-1
- immune reporter induction T24B8.5::GFP (T24B8.5::GFP): +

SMILES: O=C(O)C1CC(=O)N(CCC23CC4CC(CC(C4)C2)C3)/C(=N\c2ccc(Cl)cc2)S1 (stereo not shown) [Compound 6]
- MIC (E. faecalis MMH594): 6.25 µg/mL (≈ 14 µM)
- killing of a different Enterococcus faecalis strain [1]: killed
- bactericidal activity in Drosophila infection-survival bioassay (Drosophila infection): showed bactericidal activity
- biofilm maintenance (OD595, FIG. 3B) (E. faecalis strain V583 [2]): disrupted biofilm once it was formed
- bactericidal activity (FIGS. 7A and 7B) [3]: rapid killing of bacteria
- killing of a Staphylococcus aureus strain [4]: killed
- biofilm formation (OD595, FIG. 3A) (E. faecalis strain V583 [5]): prevented E. faecalis biofilm formation
- minimal effective concentration [6]: 0.39 µg/mL

SMILES: O=C(O)CSCC(=O)N1CCn2c3c(c4cc(C5CCCCC5)ccc42)CCCC31 (stereo not shown) [Compound 15]
- killing of a different Enterococcus faecalis strain [1]: killed
- bactericidal activity in Drosophila infection-survival bioassay (Drosophila infection): showed bactericidal activity
- bactericidal activity (FIGS. 7A and 7B) [3]: rapid killing of bacteria
- killing of a Staphylococcus aureus strain [4]: killed
